The target of test [1] is GSK3α (GST-full length GSK3α) (Homo sapiens (Human), UniProt P49840). Nature of the test: GSK3α TR-FRET kinase assay. In kind it is biochemical. The gist of the method:
(§1)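 1 nM GST-GSK3α/β + cpd, 30 min preinc; add 200 nM biotin-pS645 GS(631-650) peptide + ATP (α 4 μM / β 2 μM, or 1 mM); 100 min RT, 50 mM Tris pH 7.5, 20 mM MgCl2, 1% DMSO; EDTA stop; SA-d2/Tb-pSer641 Ab 60 min; 665/615 ratio → IC50.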

Test [2] deals with GSK3b (GST-full length GSK3b) (Homo sapiens (Human), UniProt P49841). Nature of the test: GSK3b TR-FRET kinase assay. In kind it is biochemical. Summed up:
as §1
Background: In TR-FRET formats the signal depends on donor and acceptor labels being close together.

Setting [3] is: 1 nM GSK3α, 4 μM ATP, 30 minute preincubation, Table 16, read-out: GSK3-A TR-FRET BIOCHEMICAL (TR-FRET).
The mark [4] stands for this setting: 1 nM GSK3b, 2 μM ATP, 30 minute preincubation, Table 16, read-out: GSK3-B TR-FRET BIOCHEMICAL (TR-FRET).
Where [5] appears, read: 1 nM GSK3α, 4 μM ATP, 30 minute preincubation, geometric mean, read-out: GSK3-A TR-FRET BIOCHEMICAL (TR-FRET), GMean, IC50.
The mark [6] stands for this setting: 1 nM GSK3b, 2 μM ATP, 30 minute preincubation, geometric mean, read-out: GSK3-B TR-FRET BIOCHEMICAL (TR-FRET), GMean, IC50.
The mark [7] stands for this setting: 1 nM GSK3α, 4 μM ATP, 30 minute preincubation, read-out: GSK3-A TR-FRET BIOCHEMICAL (TR-FRET), IC50.
[8] abbreviates: 1 nM GSK3b, 2 μM ATP, 30 minute preincubation, read-out: GSK3-B TR-FRET BIOCHEMICAL (TR-FRET), IC50.
The mark [9] stands for this setting: 1 nM GSK3α, 4 μM ATP, 30 minute preincubation, Table 16, read-out: GSK3-A TR-FRET BIOCHEMICAL (TR-FRET), IC50.
The mark [10] stands for this setting: 1 nM GSK3b, 2 μM ATP, 30 minute preincubation, Table 16, read-out: GSK3-B TR-FRET BIOCHEMICAL (TR-FRET), IC50.

Like-named read-outs stand apart in the source and are kept apart here. Some results are limits rather than exact numbers.

Sequence of GSK3b (GST-full length GSK3b) (P49841 whole entry): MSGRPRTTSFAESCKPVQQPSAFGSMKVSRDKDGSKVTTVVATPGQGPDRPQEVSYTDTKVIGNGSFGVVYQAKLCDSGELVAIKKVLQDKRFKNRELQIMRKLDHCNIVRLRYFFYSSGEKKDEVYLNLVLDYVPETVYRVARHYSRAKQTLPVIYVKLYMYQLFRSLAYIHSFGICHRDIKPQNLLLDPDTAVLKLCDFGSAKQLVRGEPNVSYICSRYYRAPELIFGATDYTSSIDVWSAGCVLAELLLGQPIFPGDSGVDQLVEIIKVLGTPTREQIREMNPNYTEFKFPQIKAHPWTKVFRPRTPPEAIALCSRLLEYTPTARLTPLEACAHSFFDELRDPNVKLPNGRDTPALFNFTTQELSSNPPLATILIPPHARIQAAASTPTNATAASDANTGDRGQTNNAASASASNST
Sequence of GSK3α (GST-full length GSK3α) (P49840 whole entry): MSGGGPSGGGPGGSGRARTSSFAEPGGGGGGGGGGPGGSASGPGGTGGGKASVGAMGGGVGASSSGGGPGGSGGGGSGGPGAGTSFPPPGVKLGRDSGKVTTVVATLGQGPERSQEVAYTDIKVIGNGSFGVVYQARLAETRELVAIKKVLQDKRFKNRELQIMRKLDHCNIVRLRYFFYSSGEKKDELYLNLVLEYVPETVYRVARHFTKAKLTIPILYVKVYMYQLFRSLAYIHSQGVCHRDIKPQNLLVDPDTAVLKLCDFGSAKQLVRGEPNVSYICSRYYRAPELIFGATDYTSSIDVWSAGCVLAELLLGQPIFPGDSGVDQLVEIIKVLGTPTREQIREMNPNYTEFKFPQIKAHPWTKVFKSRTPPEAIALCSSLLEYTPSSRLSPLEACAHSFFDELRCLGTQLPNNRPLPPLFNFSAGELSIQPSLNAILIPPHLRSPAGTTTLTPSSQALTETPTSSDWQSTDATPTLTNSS

Turning to `Cc1cc([C@H]2CC[C@@]3(CC2)C2=C(CC(C)(C)CC2=O)Nc2n[nH]cc23)ccn1` [Compound 948415], the IC50 in test [1] (setting [3]) and in test [2] (setting [4]) was at most 100 nM in each case.

`CC[C@@]1(c2cccc(-c3ccncc3C3CC3)c2)C2=C(CC(C)(C)NC2=O)Nc2n[nH]cc21` [Compound 948642]: the IC50 in test [1] (setting [5]) was in the range of 100 to 1000 nM; in test [2] (setting [6]), 1000 to 5000 nM.

Consider `CC(=O)N1C[C@@]2(C[C@@]3(CO2)C2=C(CC(C)(C)CC2=O)Nc2n[nH]cc23)[C@@H]1C` [Compound 948440], for which the IC50 in test [1] (setting [7]) and in test [2] (setting [8]) was at most 100 nM throughout.

For `CC1(C)CC(=O)C2=C(C1)Nc1n[nH]cc1C21CN(CC2CCCC2)C1` [Compound 943914], the IC50 in test [1] (setting [9]) and in test [2] (setting [10]) was over 5000 nM each time.

Regarding `CC[C@H]1C[C@]2(CO1)C1=C(CC(C)(C)CC1=O)Nc1n[nH]cc12` [Compound 913216], the IC50 in test [1] (setting [3]) and in test [2] (setting [4]) was 100 to 1000 nM in each case.

For `CC1(C)CC(=O)C2=C(C1)Nc1n[nH]cc1C21CCC(c2ccccc2)CC1` (centres unmarked) [Compound 877320], the IC50 in test [1] (setting [3]) and in test [2] (setting [4]) was at most 100 nM in each case.

As to `CC[C@@]1(c2cccc(C(F)(F)F)c2)C2=C(C[C@H](C)N(c3cnc(OC)nc3)C2=O)Nc2n[nH]cc21` [Compound 949354], the figures for the IC50 in test [1] (setting [9]) and in test [2] (setting [10]) were 100 to 1000 nM and 1000 to 5000 nM, respectively.

With `CCn1ccc(S(=O)(=O)N2CCC3(CC2)C2=C(CC(C)(C)NC2=O)Nc2n[nH]cc23)n1` [Compound 947836], the IC50 in test [1] (setting [5]) is at most 100 nM; in test [1] (setting [7]), at most 100 nM; in test [2] (setting [6]), 100 to 1000 nM; in test [2] (setting [8]) it was 100 to 1000 nM.

For the molecule `COCCN1CC2(C1)C1=C(CC(C)(C)CC1=O)Nc1n[nH]cc12` [Compound 943544], the IC50 in test [1] (setting [9]) and in test [2] (setting [10]) was over 5000 nM in each case.

On to `CC1(C)CC(=O)C2=C(C1)Nc1n[nH]cc1[C@]21C[C@@H](OCc2ccccc2)C1` [Compound 909211], for which the IC50 is at most 100 nM in test [1] (setting [3]) and 100 to 1000 nM in test [2] (setting [4]).

For the molecule `CCC1(c2cccc(-c3ccncc3CO)c2)C2=C(CC(C)(C)CC2=O)Nc2n[nH]cc21` (centres unmarked) [Compound 943539], the IC50 in test [1] (setting [3]) and in test [2] (setting [4]) was at most 100 nM each time.

In the case of `CCC1(c2cccc(N3CCNCC3)c2)C2=C(CC(C)(C)CC2=O)Nc2n[nH]cc21` (centres unmarked) [Compound 806604], the IC50 in test [1] (setting [5]) was over 1670 nM; in test [2] (setting [6]), over 5000 nM.

As for `CC[C@]1(c2cccc(-c3ccnc(C)c3)c2)C2=C(CC3(CCOCC3)NC2=O)Nc2n[nH]c(C)c21` [Compound 948513], the IC50 in test [1] (setting [5]) is at most 100 nM; in test [2] (setting [6]) it was 100 to 1000 nM.

Regarding `CC(=O)N1C[C@]2(C[C@]3(CO2)C2=C(CC(C)(C)CC2=O)Nc2n[nH]cc23)[C@H]1C` [Compound 948437], the IC50 in test [1] (setting [7]) is at most 100 nM; in test [1] (GSK3-A (TR-FRET 1 mM ATP), GMean, IC50, 1 mM ATP, geometric mean), at most 100 nM; in test [2] (setting [8]), at most 100 nM; in test [2] (GSK3-B (TR-FRET 1 mM ATP), GMean, IC50, 1 mM ATP, geometric mean), at most 100 nM.

On to `CC1(C)CC(=O)C2=C(C1)Nc1n[nH]cc1C21CCS(=O)(=O)CC1` [Compound 896013], for which the IC50 in test [1] (setting [3]) and in test [2] (setting [4]) was 100 to 1000 nM each time.

In the case of `CC[C@@]1(c2cccc(-c3cn[nH]c3)c2)C2=C(CC(C)(C)NC2=O)Nc2n[nH]c(C(F)(F)F)c21` [Compound 948312], the figures for the IC50 in test [1] (setting [5]) and in test [2] (setting [6]) were at most 100 nM and 100 to 1000 nM, respectively.

On to `CC[C@]1(c2cccc(C(F)(F)F)c2)C2=C(CCN(Cc3ccccc3)C2=O)Nc2n[nH]cc21` [Compound 912006], for which the IC50 in test [1] (setting [7]) and in test [2] (setting [8]) was over 5000 nM throughout.

As to `CC[C@@]1(c2cccc(-c3cn(C)nc3C)c2)C2=C(CC(C)(C)NC2=O)Nc2n[nH]cc21` [Compound 945480], the figures for the IC50 in test [1] (setting [7]) and in test [2] (setting [8]) were 1000 to 5000 nM and over 5000 nM, respectively.

Consider `CC[C@]1(c2cccc(C(C)C)c2)C2=C(CC(C)(C)CC2=O)Nc2n[nH]cc21` [Compound 810375], for which the IC50 in test [1] (setting [5]) was 1000 to 5000 nM; in test [2] (setting [6]) it was over 5000 nM.

With `CCC1(c2cccc(-c3ccnc(CO)c3)c2)C2=C(CC(C)(C)CC2=O)Nc2n[nH]cc21` (centres unmarked) [Compound 943540], the IC50 is at most 100 nM in test [1] (setting [3]) and 100 to 1000 nM in test [2] (setting [4]).

The values are drawn from patent US20250313563A1, “GLYCOGEN SYNTHASE KINASE 3 INHIBITORS AND USES THEREOF” (The Broad Institute, Inc., priority 2022, published 2025).
